Test results as given in US9187472B2 (AbbVie Inc., priority 2012, dated 2015).

Columns and labels:
[1] = system: PC3 cells; assay: NAMPT Cell Proliferation Assay; assay type: cell-based; conditions: Homo sapiens, PC-3, 120 h, 5 days incubation, cell viability by Cell Titer Glo
Method in brief: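 IC50 values derive from sigmoidal dose-response fits of percent inhibition of PC3 viability, measured by luminescence after 5 days of compound treatment. Cells (500/well, RPMI containing 10% heat-inactivated FBS) are allowed to attach overnight, and compounds are tested at 10-fold dilutions between 10 μM and 1×10^−5 μM.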

[2] = biological target: NAMPT (human, recombinant, C-terminally His-tagged) (Homo sapiens, UniProt P43490); assay: Time-Resolved Fluorescence Resonance Energy Transfer (TR-FRET) Binding Assay of NAMPT; conditions: without substrates; 6.8 nM NAMPT, 200 nM probe, 3 hours equilibration
Method in brief: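 Read-out is the time-resolved FRET ratio Em520/Em495 (excitation 337 nm) between a terbium anti-His antibody (1 nM) on the enzyme and an Oregon Green 488-labelled nicotinamide-competitive inhibitor probe (200 nM). Enzyme was 6.8 nM, DMSO 2%, pH 7.5 HEPES buffer; 3 h room-temperature equilibration preceded reading.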

[3] = biological target: NAMPT (Homo sapiens, UniProt P43490); assay: TR-FRET Binding Assay of NAMPT with PRPP; conditions: with 200 μM PRPP and 2.5 mM ATP; 2 nM NAMPT, 2 nM probe, 16 hours equilibration
Method in brief: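 NAMPT 2 nM + probe 2 nM + Tb-anti-His Ab 1 nM; PRPP 200 μM, ATP 2.5 mM, DMSO 2%; 16 h equilibration before TR-FRET read.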

Chain of NAMPT (human, recombinant, C-terminally His-tagged) (P43490 whole entry): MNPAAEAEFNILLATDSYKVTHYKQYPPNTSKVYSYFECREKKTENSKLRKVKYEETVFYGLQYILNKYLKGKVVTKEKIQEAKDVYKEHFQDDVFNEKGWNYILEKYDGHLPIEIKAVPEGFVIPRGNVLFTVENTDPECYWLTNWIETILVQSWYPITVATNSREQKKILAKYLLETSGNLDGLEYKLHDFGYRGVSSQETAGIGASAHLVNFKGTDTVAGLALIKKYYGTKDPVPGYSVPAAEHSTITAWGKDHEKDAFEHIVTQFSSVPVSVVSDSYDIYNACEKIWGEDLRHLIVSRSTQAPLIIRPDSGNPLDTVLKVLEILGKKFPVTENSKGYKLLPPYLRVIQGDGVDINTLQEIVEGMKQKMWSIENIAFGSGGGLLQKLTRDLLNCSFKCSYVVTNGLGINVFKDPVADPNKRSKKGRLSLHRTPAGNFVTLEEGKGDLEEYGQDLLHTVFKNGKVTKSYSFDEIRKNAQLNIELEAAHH
Chain of NAMPT (P43490 whole entry): as above

IC50 [1] [nM]	IC50 [2] [nM]	IC50 [3] [nM]	SMILES
7660	588	0.305	Cn1nccc1-c1ccc(C(=O)NCc2ccn3ccnc3c2)s1 [Example 363, N-(imidazo[1,2-a]pyridin-7-ylmethyl)-5-(1-methyl-1H-pyrazol-5-yl)thiophene-2-carboxamide]
31	135	0.172	CC(C)(C)OC(=O)N1CC(c2ccc(NC(=O)NCc3ccn4ccnc4c3)cc2)C1 [Example 364, tert-butyl 3-(4-{[(imidazo[1,2-a]pyridin-7-ylmethyl)carbamoyl]amino}phenyl)azetidine-1-carboxylate]
332	1340	0.171	CC(C)(C)OC(=O)N1CCC(Oc2ccc(C(=O)NCc3ccn4ccnc4c3)cc2)CC1 [Example 365, tert-butyl 4-{4-[(imidazo[1,2-a]pyridin-7-ylmethyl)carbamoyl]phenoxy}piperidine-1-carboxylate]
21.5	146	0.435	CC(C)(C)OC(=O)N1CCC(Oc2ccc(NC(=O)NCc3ccn4ccnc4c3)cc2)CC1 [Example 366, tert-butyl 4-(4-{[(imidazo[1,2-a]pyridin-7-ylmethyl)carbamoyl]amino}phenoxy)piperidine-1-carboxylate]
601	650	0.18	CC(C)C(=O)N1CCC(c2ccc(C(=O)NCc3ccn4ccnc4c3)cc2)C1 (stereo not drawn) [Example 367, N-(imidazo[1,2-a]pyridin-7-ylmethyl)-4-[1-(2-methylpropanoyl)pyrrolidin-3-yl]benzamide]
48.4	602	0.317	CC[C@H](C)C(=O)N1CCC(c2ccc(C(=O)NCc3ccn4ccnc4c3)cc2)C1 (stereo partly drawn) [Example 368, N-(imidazo[1,2-a]pyridin-7-ylmethyl)-4-{1-[(2S)-2-methylbutanoyl]pyrrolidin-3-yl}benzamide]
738	429	0.337	O=C(NCc1ccn2ccnc2c1)c1ccc(C2CCN(C(=O)CC3CC3)C2)cc1 (stereo not drawn) [Example 369, 4-[1-(cyclopropylacetyl)pyrrolidin-3-yl]-N-(imidazo[1,2-a]pyridin-7-ylmethyl)benzamide]
9.93	47.6	0.175	O=C(NCc1ccn2ccnc2c1)c1ccc(C2CCN(C(=O)c3ccccc3)C2)cc1 (stereo not drawn) [Example 370, 4-(1-benzoylpyrrolidin-3-yl)-N-(imidazo[1,2-a]pyridin-7-ylmethyl)benzamide]
820	1440	0.298	CC(C)OCC(=O)N1CCC(c2ccc(C(=O)NCc3ccn4ccnc4c3)cc2)C1 (stereo not drawn) [Example 371, N-(imidazo[1,2-a]pyridin-7-ylmethyl)-4-{1-[(propan-2-yloxy)acetyl]pyrrolidin-3-yl}benzamide]
868	2440	0.46	CC(C)(O)C(=O)N1CCC(c2ccc(C(=O)NCc3ccn4ccnc4c3)cc2)C1 (stereo not drawn) [Example 372, 4-[1-(2-hydroxy-2-methylpropanoyl)pyrrolidin-3-yl]-N-(imidazo[1,2-a]pyridin-7-ylmethyl)benzamide]

The remaining lines, values behind:

SMILES	IC50 [1] [nM]	IC50 [2] [nM]	IC50 [3] [nM]
O=C(NCc1ccn2ccnc2c1)c1ccc(-c2cnn(CC3CCCS(=O)(=O)C3)c2)s1 (stereo not drawn) [Example 344, 5-{1-[(1,1-dioxidotetrahydro-2H-thiopyran-3-yl)methyl]-1H-pyrazol-4-yl}-N-(imidazo[1,2-a]pyridin-7-ylmethyl)thiophene-2-carboxamide]	7.46	36	0.169
Cn1cc(-c2ccc(C(=O)NCc3ccn4ccnc4c3)s2)cn1 [Example 345, N-(imidazo[1,2-a]pyridin-7-ylmethyl)-5-(1-methyl-1H-pyrazol-4-yl)thiophene-2-carboxamide]	281	201	0.27
O=C(NCc1ccn2ccnc2c1)c1ccc(O[C@H]2CCN(C(=O)[C@H]3CCOC3)C2)cc1 [Example 346, N-(imidazo[1,2-a]pyridin-7-ylmethyl)-4-({(3S)-1-[(3S)-tetrahydrofuran-3-ylcarbonyl]pyrrolidin-3-yl}oxy)benzamide]	7020	3110	0.548
O=C(NCc1ccn2ccnc2c1)c1ccc(O[C@H]2CCN(C(=O)CC3CC3)C2)cc1 [Example 347, 4-{[(3S)-1-(cyclopropylacetyl)pyrrolidin-3-yl]oxy}-N-(imidazo[1,2-a]pyridin-7-ylmethyl)benzamide]	8080	4730	0.667
CC(C)(O)C(=O)N1CC[C@H](Oc2ccc(C(=O)NCc3ccn4ccnc4c3)cc2)C1 [Example 348, 4-{[(3S)-1-(2-hydroxy-2-methylpropanoyl)pyrrolidin-3-yl]oxy}-N-(imidazo[1,2-a]pyridin-7-ylmethyl)benzamide]	> 10000	> 10000	1.52
COCC(C)C(=O)N1CC[C@H](Oc2ccc(C(=O)NCc3ccn4ccnc4c3)cc2)C1 (stereo partly drawn) [Example 349, N-(imidazo[1,2-a]pyridin-7-ylmethyl)-4-{[(3S)-1-(3-methoxy-2-methylpropanoyl)pyrrolidin-3-yl]oxy}benzamide]	5510	4110	0.736
CCCC(=O)N1CC[C@H](Oc2ccc(C(=O)NCc3ccn4ccnc4c3)cc2)C1 [Example 350, 4-{[(3S)-1-butanoylpyrrolidin-3-yl]oxy}-N-(imidazo[1,2-a]pyridin-7-ylmethyl)benzamide]	8170	> 10000	0.795
CC(C)C(=O)N1CC[C@H](Oc2ccc(C(=O)NCc3ccn4ccnc4c3)cc2)C1 [Example 351, N-(imidazo[1,2-a]pyridin-7-ylmethyl)-4-{[(3S)-1-(2-methylpropanoyl)pyrrolidin-3-yl]oxy}benzamide]	8110	8390	0.792
O=C(NCc1ccn2ccnc2c1)c1ccc(O[C@H]2CCN(C(=O)C3CC3)C2)cc1 [Example 352, 4-{[(3S)-1-(cyclopropylcarbonyl)pyrrolidin-3-yl]oxy}-N-(imidazo[1,2-a]pyridin-7-ylmethyl)benzamide]	9800	> 10000	1.06
O=C(NCc1ccn2ccnc2c1)c1ccc(O[C@H]2CCN(C(=O)c3ccccc3)C2)cc1 [Example 353, 4-{[(3S)-1-benzoylpyrrolidin-3-yl]oxy}-N-(imidazo[1,2-a]pyridin-7-ylmethyl)benzamide]	7510	3170	0.47
CC(C)(O)CC(=O)N1CC[C@H](Oc2ccc(C(=O)NCc3ccn4ccnc4c3)cc2)C1 [Example 354, 4-{[(3S)-1-(3-hydroxy-3-methylbutanoyl)pyrrolidin-3-yl]oxy}-N-(imidazo[1,2-a]pyridin-7-ylmethyl)benzamide]	7490	> 10000	0.526
O=C(NCc1ccn2ccnc2c1)c1cnc(N2CCN(C(=O)c3ccccc3)CC2)s1 [Example 355, 2-(4-benzoylpiperazin-1-yl)-N-(imidazo[1,2-a]pyridin-7-ylmethyl)-1,3-thiazole-5-carboxamide]	1940	831	0.169
CC(C)N1CCN(c2ncc(C(=O)NCc3ccn4ccnc4c3)s2)CC1 [Example 356, N-(imidazo[1,2-a]pyridin-7-ylmethyl)-2-[4-(propan-2-yl)piperazin-1-yl]-1,3-thiazole-5-carboxamide]	1020	> 10000	0.169
COCCN1CCN(c2ncc(C(=O)NCc3ccn4ccnc4c3)s2)CC1 [Example 357, N-(imidazo[1,2-a]pyridin-7-ylmethyl)-2-[4-(2-methoxyethyl)piperazin-1-yl]-1,3-thiazole-5-carboxamide]	6740	> 10000	0.291
CC(C)CCNC(=O)c1ccc(C(=O)NCc2ccc3nccn3c2)cc1 [Example 358, N-(imidazo[1,2-a]pyridin-6-ylmethyl)-N′-(3-methylbutyl)benzene-1,4-dicarboxamide]	2260	1840	2.19
O=C(NCc1ccc2nccn2c1)c1ccc(C(=O)NC[C@@H]2CCOC2)cc1 [Example 359, N-(imidazo[1,2-a]pyridin-6-ylmethyl)-N′-[(3S)-tetrahydrofuran-3-ylmethyl]benzene-1,4-dicarboxamide]	8770	> 10000	2.5
CCCn1cc(-c2ccc(NC(=O)NCc3ccc4nccn4c3)cc2)cn1 [Example 360, 1-(imidazo[1,2-a]pyridin-6-ylmethyl)-3-[4-(1-propyl-1H-pyrazol-4-yl)phenyl]urea]	663	291	0.717
O=C(NCc1ccn2ccnc2c1)c1cnc(-c2ccccc2)s1 [Example 361, N-(imidazo[1,2-a]pyridin-7-ylmethyl)-2-phenyl-1,3-thiazole-5-carboxamide]	> 10000	5030	1.94
CC(C)Cn1cc(-c2ccc(NC(=O)NCc3ccc4nccn4c3)cc2)cn1 [Example 362, 1-(imidazo[1,2-a]pyridin-6-ylmethyl)-3-{4-[1-(2-methylpropyl)-1H-pyrazol-4-yl]phenyl}urea]	106	143	0.256
